Converted amounts (≈) assume the structure as drawn.

Consider one molecule from patent US11975017B2, “Compositions comprising an RNA polymerase inhibitor and cyclodextrin for treating viral infections” (priority 2017, dated 2024).

The format of series [1] is physicochemical. The conditions noted are these: between pH 1 and 10; FIG. 2. As to the method: The stability of Compound 1 was determined by monitoring the concentration of Compound 1 in solution by liquid chromatography at various storage conditions. […] The solubility of Compound 1 between pH 1 and 10 was determined by quantitatively measuring the concentration of Compound 1 in solution at various pH conditions by liquid chromatography.

Another series can be described thus: physchem. The conditions noted are these: water.

Take `CCC(CC)COC(=O)[C@H](C)N[P@](=O)(OC[C@H]1O[C@@](C#N)(c2ccc3c(N)ncnn23)[C@H](O)[C@@H]1O)Oc1ccccc1` [Compound 1, (S)-2-ethylbutyl 2-(((S)-(((2R,3S,4R,5R)-5-(4-aminopyrrolo[2,1-f][1,2,4]triazin-7-yl)-5-cyano-3,4-dihydroxytetrahydrofuran-2-yl)methoxy)(phenoxy)phosphoryl)amino)propanoate]: the “solubility as a function of pH” value in series [1] is given as “increases at or below pH 4”. For the same molecule, in the series “physchem”, the solubility (in general, how much of the substance goes into solution per volume) was roughly 30 µg/mL (≈ 49.8 µM).
